US20180169045A1, “AMINO ACID COMPOSITIONS AND METHODS FOR THE TREATMENT OF LIVER DISEASES” (AXCELLA HEALTH INC., priority 2016, published 2018)

Tests used:
[1] = tested on: Primary human hepatic stellate cells; test: TNFα-induced IL-6 secretion in primary human hepatic stellate cells (ELISA); assay type: cell-based; details: for IL-6 cytokine secretion, in words: primary human hepatic stellate cells from two donors, 3 ng/mL TNFα, 12 h
Method: Primary human hepatic stellate cells were obtained from Samsara Sciences based on the following criteria for selecting donors: adult age (between 18 and 50 years), normal BMI (>18.5 and <25), and absence of confounding liver disease. Primary human hepatic stellate cells grown in Complete HSC Medium to ˜80% confluence in T75 or T150 flasks below passage 10 were seeded into sterile, collagen I coated, 96-well optical plastic microplates (ThermoScientific, 152036) at 4000 cells per well ([…]) and incubated for 6 hours at 37° C., 5% CO2 in a humidified incubator.
After 6 hours, plates were removed from the incubator and the medium gently pipetted off and washed once with 150 μL per well DPBS. The DPBS was removed and the pretreatment medium (±single amino acid dropout, 1×HMDB DMEM+3% dialyzed FBS+0.2% Primocin, ±supplemental amino acid dose; see experiment for medium composition) was applied to the cells at 150 μL per well. Plates were returned to the incubator overnight, ˜14-15 hours.
After overnight pretreatment, the medium was removed from the cells, and the same pretreatment medium, now supplemented with 3 ng/mL TNFα is applied. Each plate contained 3 ng/mL TNFα in 1× human plasma amino acid (HMDB or PAA) concentration medium, 0 ng/mL in 1×HMDB, and 3 ng/mL TNFα+50 nM Bengamide in 1×HMDB to serve as controls. Plates were incubated for 12 hours at 37° C., 5% CO2.
After 12 hour stimulus with TNFα, supernatant was removed and frozen at −80° C. in two separate aliquots. Plates were washed gently once with DPBS and 100 μL per well of 1×HMDB DMEM+3% dialyzed FBS+0.2% Primocin+10% CCK-8 viability reagent (Dojindo). Plates were incubated for 1 hour at 37° C., 5% CO2.
After 1 hour of incubation, viability was measured on the Synergy plate reader (Absorbance at 977 (test), 900 (reference), and 450 (CCK8) nm). Immediately, the medium was removed and the plates were fixed with 70 μL per well 4% paraformaldehyde in PBS at room temperature for 20 minutes, followed by two 150 μL PBS washes, and stored with 100 μL per well PBS at 4° C. until immunofluorescence staining.
Human CCL2/MCP1 and Human IL-6 were measured by ELISA (Human […] DuoSet ELISA, R&D Systems; Human IL-6 DuoSet ELISA, R&D Systems) at 1/5 and 1/20 dilution in 1× Reagent Diluent (Reagent Ancillary Kit 2, R&D Systems). Data were normalized to the specific per well cell density determined by Hoechst stained nuclei count.

[2] = tested on: Primary human PMBC derived macrophages; test: LPS-induced IL-6 secretion in primary human monocyte-derived macrophages (ELISA); assay type: cell-based; design: IL-6 Measurements, Mean: unit not given here; details: for IL-6 Measurements, Mean: Donor 1, baseline subtracted values; for IL-6 Measurements Mean (baseline subtracted): LPS 0.15 ng/mL; for LPS-induced IL-6 secretion, in words: primary human monocyte-derived macrophages
Method: Isolation of Peripheral Blood Mononuclear Cell (PBMC) Unpurified buffy coats (Research Blood Components) were carefully poured into 50 mL centrifuge tubes and diluted with room temperature Dulbecco's Phosphate Buffered Saline (dPBS) with Calcium and Magnesium (Gibco). Diluted buffy coats were further divided into four total 50 mL centrifuge tubes at 20 mL per tube. Lymphocyte Separation Medium (Corning) was carefully pipetted to the bottom of each centrifuge tube. Mixtures were centrifuged at 850×g for 32 minutes at 20° C. with 0 deceleration and acceleration.
CD14+ cells were selected using EasySep™ Human CD14 Positive Selection Kit II ([…] Technologies). Cells were resuspended in cold EasySep™ Buffer ([…] Technologies) at 1×10^8 cells/mL. A total of 100 uL/mL EasySep™ Human CD14 Positive Selection Cocktail II was added to the cell suspension, mixed, and incubated at room temperature for 10 minutes. A total of 100 uL/mL RapidSpheres were added to the mixture and incubated at room temperature for 3 minutes after mixing, then RoboSep buffer was added to bring up the total volume to 10 mL. The mixture in a 15 mL tube was placed in magnet and incubated at room temperature for 3 minutes. Supernatant was discarded and 10 mL fresh EasySep™ buffer was added to 15 mL tube. The addition of RoboSep buffer, mixing, and discarding of supernatant was repeated two more times.
Negative and positive fractions were centrifuged at 490×g for 5 minutes at 20° C. with acceleration of 9, deceleration of 9, and resuspended in DMEM (Gibco) and 10% Heat Inactivated Fetal Bovine Serum (Atlanta Bio) and Penicillin/Streptomycin. Cells were counted and centrifuged again at 490×g for 5 minutes at 20° C. with acceleration of 9, deceleration of 9. After centrifugation, cell were resuspended in DMEM (Gibco) and 10% Heat Inactivated Fetal Bovine Serum (Atlanta Bio) and Penicillin/Streptomycin containing 500 U/mL […] and plated at 1-2×10^6 cells/mL on 10 cm tissue culture plates. Cells were kept in 37° C., 5% CO2 in between feedings/harvest.
Cells were fed every 3-4 days by removing media and unattached cells, centrifuging at 490×g for 5 minutes at 20 C with acceleration of 9, deceleration of 9, and resuspending in fresh DMEM (Gibco) and 10% Heat Inactivated Fetal Bovine Serum (Atlanta Bio) and Penicillin/Streptomycincontaining 500 U/mL GM-CSF. Resuspended cells were seeded back onto 10 cm tissue culture plates and incubated at 37° C., 5% CO2.
After complete cell attachment, culture supernatant was removed and cultures were washed 1× with 5 mL PBS. A total of 3 mL room temperature Cellstripper was added and cultures were incubated at 37° C., 5% CO2 for approximately 10 minutes until cells were rounded and beginning to detach. Cell scraper was used to completely detach cells from plate. Collected cell were spun down at 490 g for 5 min at room temperature and resuspended in 10% DMSO in Heat Inactivated Fetal Bovine Serum and immediately frozen in −80 C.
Primary human PMBC derived macrophages were seeded on day 0 at 3.0E4 cells per well in 96-well microplates (ThermoFisher) in Dulbecco's Modified Eagle Medium (DMEM) (Gibco) supplemented with penicillin-streptomycin (Hyclone) and 10% heat inactivated fetal bovine serum (HI-FBS) (Atlanta Bio) and incubated overnight at 37° C., 5% CO2. On day 1, cells were washed once with 150 uL per well DPBS (Gibco) and treated with 75 uL of: • a. Amino acid free DMEM (US Biologicals) containing a defined custom amino acid concentration based on the mean physiological concentrations in blood based on values published in the Human Metabolome Database (HMDB), with 6 mM glucose, 1 mM sodium pyruvate, 10 mM HEPES, 0.2% primocin (InVivoGen); or • b. The same medium described above with one amino acid at various concentrations including complete dropout. […]

CC(=O)N[C@@H](CS)C(=O)O [N-acetylcysteine]
Fold Change IL-6 Secretion Normalized Per Cell, Mean ([1]; donor 1, Conc. 1000 μM): 0.7141 | Fold Change IL-6 Secretion Normalized Per Cell, Mean ([1]; donor 1, Conc. 2500 μM): 0.7354 | Fold Change IL-6 Secretion Normalized Per Cell, Mean ([1]; donor 1, Conc. 5000 μM): 0.6121 | Fold Change IL-6 Secretion Normalized Per Cell, Mean ([1]; donor 1, Conc. 10000 μM): 0.5716 | Fold Change IL-6 Secretion Normalized Per Cell, Mean ([1]; donor 1, Conc. 5 X): 0.7141 | Fold Change IL-6 Secretion Normalized Per Cell, Mean ([1]; donor 1, Conc. 10 X): 0.7354 | Fold Change IL-6 Secretion Normalized Per Cell, Mean ([1]; donor 1, Conc. 20 X): 0.6121 | Fold Change IL-6 Secretion Normalized Per Cell, Mean ([1]; donor 1, Conc. 40 X): 0.5716 | Fold Change IL-6 Secretion Normalized Per Cell, Mean ([1]; donor 2, Conc. 1000 μM): 0.9161 | Fold Change IL-6 Secretion Normalized Per Cell, Mean ([1]; donor 2, Conc. 2500 μM): 0.9180 | Fold Change IL-6 Secretion Normalized Per Cell, Mean ([1]; donor 2, Conc. 5000 μM): 0.8111 | Fold Change IL-6 Secretion Normalized Per Cell, Mean ([1]; donor 2, Conc. 10000 μM): 0.7064 | Fold Change IL-6 Secretion Normalized Per Cell, Mean ([1]; donor 2, Conc. 5 X): 0.9161 | Fold Change IL-6 Secretion Normalized Per Cell, Mean ([1]; donor 2, Conc. 10 X): 0.9180 | Fold Change IL-6 Secretion Normalized Per Cell, Mean ([1]; donor 2, Conc. 20 X): 0.8111 | Fold Change IL-6 Secretion Normalized Per Cell, Mean ([1]; donor 2, Conc. 40 X): 0.7064 | IL-6 cytokine secretion, in words [1]: reduced IL-6 secretion in both donors but was only statistically significant in one of two donors | IL-6 Measurements, Mean ([2]; Conc. 5 X): 308.1772 | IL-6 Measurements, Mean ([2]; Conc. 10 X): −121.142 | IL-6 Measurements, Mean ([2]; Conc. 20 X): −553.802 | IL-6 Measurements, Mean ([2]; Conc. 40 X): −914.194 | IL-6 Measurements Mean (baseline subtracted) ([2]; Donor 2, Conc. 0 X (baseline)): −2.4E−15 | IL-6 Measurements Mean (baseline subtracted) ([2]; Donor 2, Conc. 20 X): −24.9999 | IL-6 Measurements Mean (baseline subtracted) ([2]; Donor 3, Conc. 0 X (baseline)): −9.5E−15 | IL-6 Measurements Mean (baseline subtracted) ([2]; Donor 3, Conc. 5 X): −70.3269 | IL-6 Measurements Mean (baseline subtracted) ([2]; Donor 3, Conc. 10 X): −103.586 | IL-6 Measurements Mean (baseline subtracted) ([2]; Donor 3, Conc. 20 X): −122.656 | IL-6 Measurements Mean (baseline subtracted) ([2]; Donor 3, Conc. 40 X): −140.851 | LPS-induced IL-6 secretion, in words ([2]; Donor 1, 0.15 ng/mL LPS): significantly reduced | LPS-induced IL-6 secretion, in words ([2]; Donor 2, 0.15 ng/mL LPS): significantly reduced | LPS-induced IL-6 secretion, in words ([2]; Donor 3, 0.15 ng/mL LPS): significantly reduced

CC(C)[C@H](N)C(=O)O [Valine, L-Valine]
Fold Change IL-6 Secretion Normalized Per Cell, Mean ([1]; donor 1, Conc. 4684 μM): 0.9790 | Fold Change IL-6 Secretion Normalized Per Cell, Mean ([1]; donor 1, Conc. 11710 μM): 0.9562 | Fold Change IL-6 Secretion Normalized Per Cell, Mean ([1]; donor 1, Conc. 23420 μM): 1.0404 | Fold Change IL-6 Secretion Normalized Per Cell, Mean ([1]; donor 2, Conc. 4684 μM): 1.0383 | Fold Change IL-6 Secretion Normalized Per Cell, Mean ([1]; donor 2, Conc. 11710 μM): 0.9218 | Fold Change IL-6 Secretion Normalized Per Cell, Mean ([1]; donor 2, Conc. 23420 μM): 0.9015 | IL-6 cytokine secretion, in words [1]: no significant effect | IL-6 Measurements, Mean ([2]; Conc. 4684 μM): −85.9843 | IL-6 Measurements, Mean ([2]; Conc. 11710 μM): −97.25 | IL-6 Measurements, Mean ([2]; Conc. 23420 μM): −106.268 | IL-6 Measurements Mean (baseline subtracted) ([2]; Donor 3, Conc. 234 μM (baseline)): 4.26E−14 | IL-6 Measurements Mean (baseline subtracted) ([2]; Donor 3, Conc. 4684 μM): −30.0609 | IL-6 Measurements Mean (baseline subtracted) ([2]; Donor 3, Conc. 11710 μM): −43.8022 | IL-6 Measurements Mean (baseline subtracted) ([2]; Donor 3, Conc. 23420 μM): −29.2004

CC(C)C[C@H](N)C(=O)O [Leucine, L-Leucine]
Fold Change IL-6 Secretion Normalized Per Cell, Mean ([1]; donor 1, Conc. 3054 μM): 1.1762 | Fold Change IL-6 Secretion Normalized Per Cell, Mean ([1]; donor 1, Conc. 7635 μM): 1.1215 | Fold Change IL-6 Secretion Normalized Per Cell, Mean ([1]; donor 1, Conc. 15270 μM): 1.0767 | Fold Change IL-6 Secretion Normalized Per Cell, Mean ([1]; donor 2, Conc. 3054 μM): 1.0011 | Fold Change IL-6 Secretion Normalized Per Cell, Mean ([1]; donor 2, Conc. 7635 μM): 0.9574 | Fold Change IL-6 Secretion Normalized Per Cell, Mean ([1]; donor 2, Conc. 15270 μM): 1.0183 | IL-6 cytokine secretion, in words [1]: no significant effect | IL-6 Measurements, Mean ([2]; Conc. 3054 μM): 244.9743 | IL-6 Measurements, Mean ([2]; Conc. 7635 μM): −69.9873 | IL-6 Measurements, Mean ([2]; Conc. 15270 μM): 84.46 | LPS-induced IL-6 secretion, in words ([2]; Donor 2, 0.15 ng/mL LPS): increased

N=C(N)NCCC[C@H](N)C(=O)O [Arginine, L-Arginine]
IL-6 cytokine secretion, in words [1]: no significant effect | LPS-induced IL-6 secretion, in words ([2]; Donor 1, 0.15 ng/mL LPS): increased
